Results on 12 molecules are retold here after patent publication US6518272B2, “Cycloalkyl-substituted aryl-piperazines, piperidines and tetrahydropyridines as serotonergic agents” (Wyeth, priority 1998, dated 2003).

One assay deals with depression. Conditions: in vivo; cited from earlier work.
Assay [1] has as its target T1, human 5-HT1A receptor (Homo sapiens, UniProt P08908).
T1 construct: expressed in transfected cells; host or cells: CHO cells (stably transfected)
T1 sequence (P08908 1-422): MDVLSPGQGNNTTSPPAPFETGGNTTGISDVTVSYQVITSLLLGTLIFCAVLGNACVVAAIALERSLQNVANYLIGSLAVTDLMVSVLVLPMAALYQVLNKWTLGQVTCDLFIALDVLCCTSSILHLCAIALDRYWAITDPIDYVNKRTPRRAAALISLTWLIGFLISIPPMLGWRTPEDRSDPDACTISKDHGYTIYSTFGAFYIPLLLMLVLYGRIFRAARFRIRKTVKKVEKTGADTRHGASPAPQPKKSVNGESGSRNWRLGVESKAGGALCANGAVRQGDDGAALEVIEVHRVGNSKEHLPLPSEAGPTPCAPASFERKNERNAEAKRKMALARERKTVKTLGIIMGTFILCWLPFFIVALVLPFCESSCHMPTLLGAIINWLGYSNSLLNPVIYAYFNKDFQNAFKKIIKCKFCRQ
The experiment in a line: Agonist activity: inhibition of forskolin-stimulated cAMP accumulation in transfected CHO cells. The assay is classed as cell-based. The note with it: CHO cells with human 5-HT1A receptor. The source says: Methods, 40, 47-55 (1998); variation of a procedure described by J. Zgombick et al., Naunyn-Schmiedeberg's Arch. Pharmacol., 354, 226-236 (1996)].
A general note: Cyclic AMP is a second messenger, typically raised through Gs and lowered through Gi signalling.

The target of assay [2] is T1, human 5-HT1A receptor. The experiment in a line: Displacement of [3H] 8-OHDPAT from the 5-HT1A receptor in transfected CHO cells. The format is binding. Conditions: displacement of [3H] 8-OHDPAT; CHO cells stably transfected with the human 5-HT1A receptor; read-out: 5-HT1A Affinity (IC50). The text has this:
Affinity for the serotonin 5-HT1A receptor was established by assaying the test compound's ability to displace [^3H] 8-OHDPAT from its binding site on the receptor complex in CHO cells stably transfected with the human 5-HT1A receptor following the procedure described by J. Dunlop, Y. Zhang, D. Smith and L. Schechter (Eur. J. Pharmacol., submitted; variation of a procedure described by J. Zgombick et al., Naunyn-Schmiedeberg's Arch. Pharmacol., 354, 226-236 (1996)).

Assay [3] has as its system impairment of spatial learning caused by intrahippocampal scopolamine. Conditions: cited from earlier work.
Assay [4] deals with cognitive deficits induced by fornix lesions. The note with it: marmosets; cited from earlier work.
The test system of the next assay is antidepressant response. The note with it: clinical trials; co-administration with the SSRI's paroxetine and fluoxetine; cited from earlier work.
For assay [5], the system named is human prostate tumor cell lines PC3, DU-145 and LNCaP. The note with it: PC3, DU-145 and LNCaP in vitro; cited from earlier work.
In a further assay the test system is PC3 cell line. The note with it: athymic nude mice; cited from earlier work.
Another assay deals with LTP. The note with it: cited from earlier work.
The test system of assay [6] is motion sickness and xylazine- and cis-platinin-induced vomiting. The note with it: cited from earlier work.

pEC50, pIC50: −log10 of the molar value.

On to `O=C1CC2(CCCC2)CC(=O)N1CCCCN1CCN(c2ncccn2)CC1` [Buspirone, buspirone], for which the antidepressant activity result with depression is reported as “weak antidepressant activity”. A word on the pEC50: it is the negative decadic logarithm of the EC50, by convention in mol/L. A high value points to a low EC50. One may read the pIC50 as the negative decadic logarithm of the IC50, by convention in mol/L. With `COc1cccc(N2CCN(C[C@H](CC3CCCCC3)NC(=O)C3CCCCC3)CC2)n1` [Example 12, Cyclohexane Carboxylic Acid {(1S)-1-Cyclohexylmethyl-2-[4-(6methoxypyridin-2-yl)-piperazin-1-yl]-ethyl}-amide], at human 5-HT1A receptor [1], the pEC50 was 7.83. Moreover, at human 5-HT1A receptor [2], the pIC50 is 8.38. Turning to `COc1ccccc1N1CCN(CC(C(=O)NC(C)(C)C)c2ccccc2)CC1` (stereo not drawn) [WAY-100135], in [3], the “effect on impairment of spatial learning” value was “prevented the impairment of spatial learning”. `COc1ccccc1N1CCN(CCN(C(=O)C2CCCCC2)c2ccccn2)CC1` [WAY-100635]: the “effect on cognitive deficits induced by fornix lesions” value in assay [4] is given as “reversed the cognitive deficits”.

With `CC(C)NCC(O)COc1cccc2[nH]ccc12` (stereo not drawn) [pindolol], in the assay on antidepressant response, the “median time needed to achieve a sustained antidepressant response” value is on record as “significantly reduced the median time”.

pindobind: the “antineoplastic activity in vitro” value in assay [5] is given as “antineoplastic activity”. Moreover, the “growth of PC3 cell line in vivo” value with PC3 cell line is “inhibited the growth”. The molecule `O=C(N[C@H](CC1CCCCC1)CN1CCN(c2ncccn2)CC1)C1CCC1` [Example 11, Cyclobutane Carboxylic Acid {(1R)-1-Cyclohexylmethyl-2-[4-(pyrimidin-2-yl)-piperazin-1-yl]-ethyl}-amide] gave a pEC50 on human 5-HT1A receptor [1] of 7.66. In addition, the pIC50 on human 5-HT1A receptor [2] was 8.62. `COc1ccccc1N1CCN(CCCCN2C(=O)c3ccccc3C2=O)CC1` [NAN-190]: the “effect on LTP” value in the assay on LTP is recorded as “augment LTP”. `COc1ccccc1C1CCN(C[C@@H](CC2CCCCC2)NC(=O)C2CCCCC2)CC1` [Example 15, Cyclohexanecarboxylic Acid {(1R)-1-Cyclohexylmethyl-2-[4-(2-methoxyphenyl)-piperidin-1-yl]-ethyl}-amide] gave a pEC50 on human 5-HT1A receptor [1] of 8.41. For the same molecule, the pIC50 at human 5-HT1A receptor [2] was 8.97. Regarding `O=C(NCCN1CCN(c2cccc3c2OC[C@H](CO)O3)CC1)c1ccc(F)cc1` [Flesinoxan], the “antiemetic activity in animal models” value in [6] is reported as “particularly active”. As for `O=C(N[C@H](CC1CCCCC1)CN1CCN(c2nc3ccccc3s2)CC1)C1CCCCC1` [Example 13, Cyclohexanecarboxylic Acid {(1R)-1-Cyclohexylmethyl-2-[4-(benzothiazol-2-yl)-piperazin-1-yl]-ethyl}-amide], the pEC50 at human 5-HT1A receptor [1] was 8.32. Also, the pIC50 at human 5-HT1A receptor [2] was 8.53. For `O=C(N[C@H](CC1CCCCC1)CN1CCN(c2ncccn2)CC1)C1CCCCC1` [Example 10, Cyclohexanecarboxylic Acid {(1R)-1-Cyclohexylmethyl-2-[4-(pyrimidin-2-yl)-piperazin-1-yl]-ethyl}-amide] the same measures were 8.89 and 9.15.
